Source: paper PMC11725127 (Acta Pharmaceutica Sinica. B, 2024)

What was measured:
[1] = biological target: ubiquitin-specific protease 2 (USP2) (Homo sapiens, UniProt O75604, C284S); test: thermal stability shift; type: cell-based
USP7 = USP7 (Homo sapiens, UniProt Q93009); test: in vitro gel-based GST-UBA52 cleavage assay; type: biochemical
[2] = biological target: ubiquitin-specific protease 2 (USP2) (Homo sapiens, UniProt O75604); test: LC-MS/MS covalent adduct on recombinant USP2; type: biochemical
ubiquitin-specific protease 2 (USP2) (Homo sapiens, UniProt O75604), sequence (O75604 259-605): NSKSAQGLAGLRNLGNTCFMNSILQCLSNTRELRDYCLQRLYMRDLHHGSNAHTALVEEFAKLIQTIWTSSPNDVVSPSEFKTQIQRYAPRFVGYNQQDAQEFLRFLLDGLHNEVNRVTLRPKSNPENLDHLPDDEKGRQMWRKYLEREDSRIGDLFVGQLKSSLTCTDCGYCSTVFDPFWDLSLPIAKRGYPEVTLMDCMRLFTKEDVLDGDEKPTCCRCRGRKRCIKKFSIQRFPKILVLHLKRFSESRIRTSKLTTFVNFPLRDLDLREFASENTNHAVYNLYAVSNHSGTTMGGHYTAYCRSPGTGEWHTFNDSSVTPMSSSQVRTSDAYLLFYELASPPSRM

USP7, sequence (Q93009 whole entry): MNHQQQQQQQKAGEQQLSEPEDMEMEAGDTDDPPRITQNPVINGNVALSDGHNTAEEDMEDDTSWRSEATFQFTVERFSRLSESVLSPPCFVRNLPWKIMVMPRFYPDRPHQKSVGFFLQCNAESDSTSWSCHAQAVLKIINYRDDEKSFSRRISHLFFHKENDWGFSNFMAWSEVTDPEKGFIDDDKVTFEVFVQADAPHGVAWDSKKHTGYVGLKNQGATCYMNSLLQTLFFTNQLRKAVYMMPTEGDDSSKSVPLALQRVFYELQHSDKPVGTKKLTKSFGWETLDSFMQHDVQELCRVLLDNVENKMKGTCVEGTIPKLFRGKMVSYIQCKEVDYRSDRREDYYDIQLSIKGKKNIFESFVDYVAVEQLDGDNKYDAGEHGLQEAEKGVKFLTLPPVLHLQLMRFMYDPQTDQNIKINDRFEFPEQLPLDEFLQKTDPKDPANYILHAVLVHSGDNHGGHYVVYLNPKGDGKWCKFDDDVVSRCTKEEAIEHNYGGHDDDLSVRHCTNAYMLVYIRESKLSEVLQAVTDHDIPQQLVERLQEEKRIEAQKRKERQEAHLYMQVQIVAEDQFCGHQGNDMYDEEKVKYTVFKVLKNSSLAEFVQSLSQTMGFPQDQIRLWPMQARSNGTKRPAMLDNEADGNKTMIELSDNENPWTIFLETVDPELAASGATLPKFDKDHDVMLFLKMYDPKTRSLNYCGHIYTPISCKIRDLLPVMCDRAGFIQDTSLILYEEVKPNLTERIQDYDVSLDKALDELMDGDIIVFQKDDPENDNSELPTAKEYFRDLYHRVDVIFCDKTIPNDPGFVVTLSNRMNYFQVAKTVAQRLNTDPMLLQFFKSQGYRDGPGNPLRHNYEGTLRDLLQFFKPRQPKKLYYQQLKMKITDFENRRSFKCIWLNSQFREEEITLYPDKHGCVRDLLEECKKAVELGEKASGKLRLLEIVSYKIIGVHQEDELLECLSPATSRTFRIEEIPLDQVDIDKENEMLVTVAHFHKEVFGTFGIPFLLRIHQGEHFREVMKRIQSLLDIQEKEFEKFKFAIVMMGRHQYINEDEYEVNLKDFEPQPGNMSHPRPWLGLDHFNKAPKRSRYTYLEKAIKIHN
ubiquitin-specific protease 2 (USP2) (Homo sapiens, UniProt O75604, C284S), sequence (O75604 whole entry C284S): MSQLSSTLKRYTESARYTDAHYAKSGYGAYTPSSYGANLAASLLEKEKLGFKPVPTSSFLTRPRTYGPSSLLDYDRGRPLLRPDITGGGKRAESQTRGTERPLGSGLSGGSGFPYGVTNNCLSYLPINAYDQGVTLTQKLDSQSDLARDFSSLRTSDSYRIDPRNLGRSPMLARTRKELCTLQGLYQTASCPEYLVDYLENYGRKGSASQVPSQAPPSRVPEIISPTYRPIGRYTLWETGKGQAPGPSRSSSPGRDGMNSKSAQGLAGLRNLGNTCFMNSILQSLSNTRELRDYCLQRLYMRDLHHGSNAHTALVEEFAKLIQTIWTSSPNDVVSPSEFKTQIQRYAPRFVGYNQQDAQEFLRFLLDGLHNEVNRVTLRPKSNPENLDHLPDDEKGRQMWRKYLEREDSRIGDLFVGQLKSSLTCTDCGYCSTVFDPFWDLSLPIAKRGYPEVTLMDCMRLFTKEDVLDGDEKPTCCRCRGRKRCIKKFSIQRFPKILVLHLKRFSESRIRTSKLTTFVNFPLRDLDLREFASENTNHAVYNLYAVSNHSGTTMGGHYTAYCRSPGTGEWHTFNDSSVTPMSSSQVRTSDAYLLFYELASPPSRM

CC(C)=CCC[C@]1(C)C=Cc2c(O)c3c(c(CC=C(C)C)c2O1)O[C@]12C(=C[C@@H]4C[C@H]1C(C)(C)O[C@@]2(C/C=C(/C)C(=O)O)C4=O)C3=O [GA, gambogic acid]
thermal stability shift (Fig. S15) [1]: the thermal stability of USP2^Cys284S could also be altered by GA | IC50 (USP7): 17 µM | IC50 [2]: 1.8 µM
